Measured values reported in article PMC6611794, “Development of a high-throughput strategy for discovery of potent analogues of antibiotic lysocin E” (Nature Communications, 2019).
Values joined by “and” are separate entries in the source; they are usually repeats but may differ in a detail not shown here. Equal entries are not always repeated. Where two headings read alike, the source gives them in different places. Where a SMILES comes first, the peptide text is derived from it. Bridges are numbered along the chain shown (N, C = ends). [ ]: non-standard residue; d: D form. The star is where a group is joined. Hexanoyl(3R-OH,5-Me) = CC(C)C[C@@H](O)CC(=O)*; dNMeF = CN[C@H](Cc1ccccc1)C(=O)O; dOrn = NCCC[C@@H](N)C(=O)O

Key:
[1] = On-bead menaquinone complexation assay (fluorescence of 2H); type: binding; settings: single library bead (hit beads >1000 a.u.), average of three readings
Description: Next, the feasibility of the on-bead complexation assay was assessed using bead-linked lysocin E 30 and MK-4 (2). Our initial assay based on the finding that 1 and 2 form a red precipitate upon complexation (Supplementary Fig. 2) was not robust, because the magnitude of the red color was not proportional to the amount of captured 2 (Fig. 2b, c). We therefore developed a fluorescence-based method for quantifying 2 by reducing its naphthoquinone moiety to fluorescent hydroquinone 2H. One bead of 30 was incubated with 2 in MeOH, washed by MeOH in a microplate well, and then the bead-bound 2 was eluted under more forcing hydrophobic conditions (n-BuOH at 50 °C). The eluate containing 2 was treated with NaBH4 in n-BuOH to produce 2H[46]. The fluorescence intensity of 2H was evaluated to determine the quantity of 2 bound to one bead of 30. The method was found with a small margin of error (1026 ± 64 a.u.), indicating its high accuracy (Fig. 2a and Supplementary Fig. 3). Importantly, the structure of 1 remained intact during the complexation assay as judged by UHPLC and mass analyses.
General procedures for menaquinone complexation assay. To the bead-linked lysocin E analogues in LibraTube was added a solution of menaquinone-4 (2) in MeOH (10 mM, 1.0 mL/1000 beads). The mixture was incubated at room temperature for 12 h. A suspension of the beads in MeOH (200 beads/200 µL) was transferred to a 2.0 mL microtube.
Each bead in the microtube was transferred to each well of a 96-well filtration plate (278011, Thermo Fisher Scientific, 1 bead/well) with the solution of 2 (20 µL/bead) using a micropipette. To each well was added MeOH (400 µL), and the beads was filtered by gravity flow (× 3). The beads in the plate were dried under vacuum for 0.5–1 h. The dried beads were transferred to a 96-well PCR plate (652270, Greiner bio-one, 1 bead/well) with MeOH (20 µL/well) using a micropipette. The solution was removed under a stream of Ar at 40 °C to give the 2-bound bead-linked peptides.
To the 2-bound bead-linked peptides in the plate was added n-BuOH (30 µL/well) at room temperature .
The suspension was incubated at 50 °C for 1 h. The resultant mixture in the plate was centrifuged at 3500 × g at room temperature for 10 sec . The supernatant in each well was transferred to the corresponding well of a black polystyrene flat -bottom 96-well plate (655086, Greiner bio-one). The solution was concentrated under a stream of Ar at 40 °C to give the eluted 2.
To the above eluted 2 in the plate was added n-BuOH (25 µL/well) at room temperature. The plate was vortexed at room temperature for 10 min. To the resultant solution was added a solution of NaBH4 in n-BuOH (1.0 mM, 25 µL/well). The plate was vortexed at room temperature for 10 min. The fluorescence of menahydroquinone (2H, Ex. 250 nm/Em. 430 nm) of each well was measured at room temperature every 3 min (0, 3, and 6 min) on Gemini EM microplate reader (Molecular Devices) . The three fluorescence intensities of each bead were averaged and plotted against the bead number.
Evaluation of menaquinone complexation activities of the selected bead-linked peptides. Bead-linked peptides 30, BLP1, and BLP2 were synthesized according to the above described procedures (loading rate:
0.222 mmol/g). The bead-linked peptides were subjected to the MK complexation assay described above.
The obtained fluorescent intensities of 2H (arbitrary unit) were 1026 ± 64 for 30, 396 ± 27 for BLP1, 72.9 ± 2.0 for BLP2, and 41.6 ± 0.1 for background adsorption (no bead), respectively (Supplementary Figure 3).

[2] = Liposomal membrane disruption assay (carboxyfluorescein LUVs); type: biochemical
Description: Preparation of LUVs consisting of PC/PG/MK-4 or PC/PG/UQ-10. To a solution of egg yolk phosphatidylcholine (9.48 mg, 12.4 µmol) and egg yolk phosphatidylglycerol (9.66 mg, 12.4 µmol) in CHCl3 (0.208 mL) was added a solution of MK-4 (2) or UQ-10 (3) (0.313 µmol) in CHCl3 (21.8 µL). The solution was concentrated, and dried under vacuum to for m a lipid thin film. The thin film was hydrated and suspended in carboxyfluorescein-containing buffer solution (0.500 mL, 5 mM HEPES, 20 mM carboxyfluorescein , pH 7.5) by vortexing and sonication. After five-times freeze-thaw cycles, the lipid suspension was extruded 19 times through a polycarbonate filter with 0.40 µm of pore siz e in the diameter.
The external carboxyfluorescein -containing buffer was replaced with a carboxyfluorescein -free buffer solution (20 mM HEPES, 1 mM EDTA, pH 7.5) through size exclusion chromatography using disposable PD -10 column. Concentration of egg yolk phosphatidylcholine was determined by using Phospholipid C -Test Wako.
The final concentration of egg yolk phosphatidylcholine was adjusted to 4.0 µM with the carboxyfluorescein -free buffer solution, and the solution was used for membrane disruption ass ay.
Membrane disruption assay. Peptides 1, A1–A22, B1–B5, and C1–C5 were diluted with MeOH/H2O (4/6) to various concentrations as 5-fold serial dilutions. The solution of peptides (2 µL/well) and the carboxyfluorescein-encapsulated LUV suspension (200 µL/well) were mixed in black polystyrene flat-bottom 96-well plates. The final concentration of peptides ranged from 2970 nM to 0.950 nM. The plates were vortexed at room temperature for 30 min, and then fluorescence of carboxyfluorescein (Ex. 490 nm/Em. 517 nm) of each well was measured at room temperature on Gemini EM microplate reader. Trion X-100/H2O (5/95, 2 µL), MeOH/H2O (4/6, 2 µL), and the LUV suspension were mixed in each plate to determine 100% lysis. MeOH/H2O (4/6, 2 µL) and the LUV suspension were mixed in each plate to determine 0% lysis.
The membrane disruption activities of tested peptides (I) were normalized against 100% lysis by Triton X -100 […]
(Imax) and 0% lysis by MeOH/H2O (4/6) (I0) as following, where Ix is the fluorescence intensity (Supplementary Equation 2).
I = 100 × (Ix – I0) / (Imax – I0) (2)
The membrane-disrupting activities were evaluated as half-maximal response (EC50, nM) values by means of three replicates. Sigmoidal curve fittings were performed on R2 with drc package (Supplementary Figs S7–S9).3 Two-parameter logistic model was applied for the fitting.

[3] = PC/PG/3 LUVs, 1st experiment, read-out: EC50 PC/PG/3 1st
[4] = PC/PG/3 LUVs, 2nd experiment, read-out: EC50 PC/PG/3 2nd
[5] = PC/PG/3 LUVs, 3rd experiment, read-out: EC50 PC/PG/3 3rd
[6] = 30 min, room temperature, mean ± SD of three independent experiments, read-out: EC50 PC/PG/3

Structure (SMILES) | EC50 [2, 3] | EC50 [2, 4] | EC50 [2, 5] | EC50 [2, 6] | fluorescence intensity of 2H [1] | fluorescence intensity of 2H ([1]; listed as YLOI)
CC[C@H](C)[C@@H]1NC(=O)[C@@H](Cc2c[nH]c3ccccc23)NC(=O)[C@@H](C(C)C)NC(=O)[C@H](CCC(=O)O)NC(=O)[C@@H](CCCNC(=N)N)NC(=O)[C@H](CC(C)C)NC(=O)[C@@H](Cc2ccccc2)N(C)C(=O)CNC(=O)[C@H](C)NC(=O)[C@@H](CCCNC(=N)N)NC(=O)[C@@H](NC(=O)C[C@H](O)CC(C)C)[C@@H](C)OC(=O)[C@H]([C@@H](C)O)NC1=O [Peptide A2] ({Hexanoyl(3R-OH,5-Me)}-T[dR]AG[dNMeF]L[dR]E[dV][dW]IT; ester 1-C) | 89.7 nM | 133 nM | 57.5 nM | – | 1152.24 a.u. | –
CC[C@H](C)[C@@H]1NC(=O)[C@@H](Cc2c[nH]c3ccccc23)NC(=O)[C@@H](CCC(N)=O)NC(=O)[C@H](CCC(=O)O)NC(=O)[C@@H](CCCNC(=N)N)NC(=O)[C@H](CC(C)C)NC(=O)[C@@H](Cc2ccccc2)N(C)C(=O)CNC(=O)[C@H](C)NC(=O)[C@@H](CCCNC(=N)N)NC(=O)[C@@H](NC(=O)C[C@H](O)CC(C)C)[C@@H](C)OC(=O)[C@H]([C@@H](C)O)NC1=O [Peptide A1] ({Hexanoyl(3R-OH,5-Me)}-T[dR]AG[dNMeF]L[dR]E[dQ][dW]IT; ester 1-C) | 128 nM | 82.1 nM | 68.1 nM | 92.7 ± 31.3 nM | 1237.12 a.u. | –
CC[C@H](C)[C@@H]1NC(=O)[C@@H](Cc2c[nH]c3ccccc23)NC(=O)[C@@H](CCC(N)=O)NC(=O)[C@H](CCC(=O)O)NC(=O)[C@@H](CCCNC(=N)N)NC(=O)[C@H](CC(C)C)NC(=O)[C@@H](Cc2ccccc2)N(C)C(=O)CNC(=O)[C@H](CO)NC(=O)[C@@H](CCCNC(=N)N)NC(=O)[C@@H](NC(=O)C[C@H](O)CC(C)C)[C@@H](C)OC(=O)[C@H]([C@@H](C)O)NC1=O [Peptide 1, Lysocin E] ({Hexanoyl(3R-OH,5-Me)}-T[dR]SG[dNMeF]L[dR]E[dQ][dW]IT; ester 1-C) | 58 nM | 167 nM | 51.6 nM | 92 nM | 1369.78 a.u. | –
CC[C@H](C)[C@@H]1NC(=O)[C@@H](Cc2c[nH]c3ccccc23)NC(=O)[C@@H](CCCN)NC(=O)[C@H](CCC(=O)O)NC(=O)[C@@H](CCCNC(=N)N)NC(=O)[C@H](CC(C)C)NC(=O)[C@@H](Cc2ccccc2)N(C)C(=O)CNC(=O)[C@H](Cc2ccc(O)cc2)NC(=O)[C@@H](CCCNC(=N)N)NC(=O)[C@@H](NC(=O)C[C@H](O)CC(C)C)[C@@H](C)OC(=O)[C@H]([C@@H](C)O)NC1=O [Peptide A7] ({Hexanoyl(3R-OH,5-Me)}-T[dR]YG[dNMeF]L[dR]E[dOrn][dW]IT; ester 1-C) | 334 nM | 595 nM | 395 nM | 441 ± 136 nM | – | 1035.66 a.u. and 1123.94 a.u.

Second part, led by results:

EC50 [2, 3] | EC50 [2, 4] | EC50 [2, 5] | EC50 [2, 6] | Structure (SMILES) | fluorescence intensity of 2H [1] | fluorescence intensity of 2H ([1]; listed as YLOI)
231 nM | 383 nM | 189 nM | 268 ± 102 nM | CC(C)C[C@@H](O)CC(=O)N[C@@H]1C(=O)N[C@H](CCCNC(=N)N)C(=O)N[C@@H](C)C(=O)NCC(=O)N(C)[C@H](Cc2ccccc2)C(=O)N[C@@H](CC(C)C)C(=O)N[C@H](CCCNC(=N)N)C(=O)N[C@@H](CCC(=O)O)C(=O)N[C@H](Cc2ccc(O)cc2)C(=O)N[C@H](Cc2c[nH]c3ccccc23)C(=O)N[C@@H](Cc2ccc(O)cc2)C(=O)N[C@@H]([C@@H](C)O)C(=O)O[C@@H]1C [Peptide A15] ({Hexanoyl(3R-OH,5-Me)}-T[dR]AG[dNMeF]L[dR]E[dY][dW]YT; ester 1-C) | 1125.25 a.u. | –
999 nM | > 1500 nM | 867 nM | – | CC[C@H](C)[C@@H]1NC(=O)[C@@H](Cc2c[nH]c3ccccc23)NC(=O)[C@@H](CCCN)NC(=O)[C@H](CCC(=O)O)NC(=O)[C@@H](CCCNC(=N)N)NC(=O)[C@H](CC(C)C)NC(=O)[C@@H](Cc2ccccc2)N(C)C(=O)CNC(=O)[C@H](CC(N)=O)NC(=O)[C@@H](CCCNC(=N)N)NC(=O)[C@@H](NC(=O)C[C@H](O)CC(C)C)[C@@H](C)OC(=O)[C@H]([C@@H](C)O)NC1=O [Peptide A14] ({Hexanoyl(3R-OH,5-Me)}-T[dR]NG[dNMeF]L[dR]E[dOrn][dW]IT; ester 1-C) | 1470.92 a.u. | –
892 nM | 1040 nM | 565 nM | 832 ± 243 nM | CC[C@H](C)[C@@H]1NC(=O)[C@@H](Cc2c[nH]c3ccccc23)NC(=O)[C@@H](CCCN)NC(=O)[C@H](CCC(=O)O)NC(=O)[C@@H](CCCNC(=N)N)NC(=O)[C@H](CC(C)C)NC(=O)[C@@H](Cc2ccccc2)N(C)C(=O)CNC(=O)[C@H](CC(=O)O)NC(=O)[C@@H](CCCNC(=N)N)NC(=O)[C@@H](NC(=O)C[C@H](O)CC(C)C)[C@@H](C)OC(=O)[C@H]([C@@H](C)O)NC1=O [Peptide A16] ({Hexanoyl(3R-OH,5-Me)}-T[dR]DG[dNMeF]L[dR]E[dOrn][dW]IT; ester 1-C) | 1414.45 a.u. | –
> 1500 nM | > 1500 nM | > 1500 nM | > 1500 nM | CC[C@H](C)[C@@H]1NC(=O)[C@@H](Cc2c[nH]c3ccccc23)NC(=O)[C@@H](Cc2ccc(O)cc2)NC(=O)[C@H](CCC(=O)O)NC(=O)[C@@H](CCCNC(=N)N)NC(=O)[C@H](CC(C)C)NC(=O)[C@@H](Cc2ccccc2)N(C)C(=O)CNC(=O)[C@H](CC(=O)O)NC(=O)[C@@H](CCCNC(=N)N)NC(=O)[C@@H](NC(=O)C[C@H](O)CC(C)C)[C@@H](C)OC(=O)[C@H]([C@@H](C)O)NC1=O [Peptide A17] ({Hexanoyl(3R-OH,5-Me)}-T[dR]DG[dNMeF]L[dR]E[dY][dW]IT; ester 1-C) | 1396.02 a.u. | –
